Data as given in PubChem BioAssay AID192 (DTP/NCI, 2004).
Several values for one entry are separate records, joined by “and”; a condition that tells them apart may be missing. Equal entries are not always repeated. Toxic doses and inconclusive results are not listed. Numbered stars: 1 amine (or outer) side, 2 acyl side, 3 side chain; on linkers, the order of the positions; unused ones are H or OH. Bridge positions count the residues as written; N and C are the ends. Square brackets hold non-standard residues; d marks the D form. Peptide text beside a SMILES is read from it. I, II: the chains in the order shown. Actinocin(1to9) = Cc1c2oc3c(C)ccc(C(=O)[*:2])c3nc-2c(C(=O)[*:1])c(N)c1=O; X1 = O=C1CC(C(=O)[*:2])N([*:1])C1; NMeV = CN[CH](C(=O)O)C(C)C; Sar = CNCC(=O)O

Tested on: BDF1 mice, B16 melanoma ip, median survival T/C
Test: NCI In Vivo Anticancer Drug Screen. Data for tumor model B16 Melanoma (intraperitoneal) in B6D2F1 (BDF1) mice
Conditions: endpoint: median survival time, higher = longer survival
Method in brief: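 Antitumor activity is assessed in mice bearing a transplanted tumor, with survival or tumor size compared against vehicle-dosed controls and expressed as T/C.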

[1] = dose: 100.0 mg/kg/injection, schedule: Q01DX009 (ip), vehicle: Klucel (hydroxypropylcellulose) (HPC)
[2] = dose: 200.0 mg/kg/injection, schedule: Q01DX009 (ip), vehicle: Klucel (hydroxypropylcellulose) (HPC)
[3] = dose: 400.0 mg/kg/injection, schedule: Q01DX009 (ip), vehicle: Klucel (hydroxypropylcellulose) (HPC)
[4] = dose: 25.0 mg/kg/injection, schedule: Q01DX009 (ip), vehicle: saline with Tween-80
[5] = dose: 50.0 mg/kg/injection, schedule: Q01DX009 (ip), vehicle: saline with Tween-80
[6] = dose: 100.0 mg/kg/injection, schedule: Q01DX009 (ip), vehicle: saline with Tween-80
[7] = dose: 12.5 mg/kg/injection, schedule: Q01DX009 (ip), vehicle: Klucel (hydroxypropylcellulose) (HPC)
[8] = dose: 25.0 mg/kg/injection, schedule: Q01DX009 (ip), vehicle: Klucel (hydroxypropylcellulose) (HPC)
[9] = dose: 50.0 mg/kg/injection, schedule: Q01DX009 (ip), vehicle: Klucel (hydroxypropylcellulose) (HPC)
[10] = dose: 12.5 mg/kg/injection, schedule: Q01DX009 (ip), vehicle: saline
[11] = dose: 100.0 mg/kg/injection, schedule: Q01DX009 (ip), vehicle: saline
[12] = dose: 6.25 mg/kg/injection, schedule: Q01DX009 (ip), vehicle: saline

CCN(C(=O)COc1ccc(Cl)cc1)c1ccccc1C
T/C [1]: 96 % of control
T/C [2]: 106 % of control
T/C [3]: 96 % of control

Oc1c(Br)cc(Br)cc1/C=N/N=C/c1cc(Br)cc(Br)c1O
T/C [1]: 90 % of control
T/C [2]: 87 % of control

CCCCn1cnc2c(SC)ncnc21
T/C [4]: 90 % of control and 115 % of control
T/C [5]: 87 % of control and 111 % of control
T/C [6]: 92 % of control and 115 % of control

NC1=CC(=O)c2ccccc2C1=O
T/C [7]: 96 % of control
T/C [8]: 99 % of control
T/C [9]: 101 % of control

OCCNCCNc1ccnc2cc(Cl)ccc12
T/C [10]: 89 % of control
T/C (dose: 25.0 mg/kg/injection, schedule: Q01DX009 (ip), vehicle: saline): 104 % of control
T/C (dose: 50.0 mg/kg/injection, schedule: Q01DX009 (ip), vehicle: saline): 99 % of control
T/C [11]: 110 % of control

NCCc1ccc(S(=O)(=O)O)cc1[N+](=O)[O-]
T/C (dose: 50.0 mg/kg/injection, schedule: Q01DX009 (ip), vehicle: carboxymethylcellulose (CMC)): 96 % of control
T/C (dose: 100.0 mg/kg/injection, schedule: Q01DX009 (ip), vehicle: carboxymethylcellulose (CMC)): 86 % of control
T/C (dose: 200.0 mg/kg/injection, schedule: Q01DX009 (ip), vehicle: carboxymethylcellulose (CMC)): 89 % of control

Cc1c2oc3c(C)ccc(C(=O)NC4C(=O)NC(C(C)C)C(=O)N5CCCC5C(=O)N(C)CC(=O)N(C)C(C(C)C)C(=O)OC4C)c3nc-2c(C(=O)NC2C(=O)NC(C(C)C)C(=O)N3CC(=O)CC3C(=O)N(C)CC(=O)N(C)C(C(C)C)C(=O)OC2C)c(N)c1=O (centres undefined) (I: TV[X1][Sar][NMeV] / II: TVP[Sar][NMeV]; ester I:1-I:C, II:1-II:C; linker I:N-II:N via Actinocin(1to9); configuration not given here)
T/C (dose: 6.2 micrograms/kg/injection, schedule: Q01DX009 (ip), vehicle: water): 123 % of control
T/C (dose: 9.4 micrograms/kg/injection, schedule: Q04DX003 (ip), vehicle: water): 106 % of control
T/C (dose: 18.7 micrograms/kg/injection, schedule: Q04DX003 (ip), vehicle: water): 123 % of control
T/C (dose: 25.0 micrograms/kg/injection, schedule: Q01DX001 (ip), vehicle: water): 123 % of control
T/C (dose: 50.0 micrograms/kg/injection, schedule: Q01DX001 (ip), vehicle: water): 116 % of control
T/C (dose: 100.0 micrograms/kg/injection, schedule: Q01DX001 (ip), vehicle: water): 106 % of control

c1cc[c]([Sn]([c]2ccccc2)([c]2ccccc2)[n]2cccc2)cc1
T/C [12]: 115 % of control

CSc1nc(=O)[nH]nc1SCc1ccccc1
T/C [9]: 98 % of control
T/C [1]: 105 % of control
T/C [2]: 98 % of control
T/C [3]: 110 % of control

C/C=C/C=C1/OC(C)=C(C(C)=O)C1=O
T/C (dose: 12.5 mg/kg/injection, schedule: Q01DX009 (ip), vehicle: saline with Tween-80): 102 % of control and 111 % of control
T/C [4]: 102 % of control
T/C [5]: 102 % of control and 110 % of control
T/C [6]: 96 % of control and 109 % of control
T/C (dose: 200.0 mg/kg/injection, schedule: Q01DX009 (ip), vehicle: saline with Tween-80): 104 % of control
T/C (dose: 400.0 mg/kg/injection, schedule: Q01DX009 (ip), vehicle: saline with Tween-80): 98 % of control

CCOC(=O)N(C)C
T/C [11]: 93 % of control
T/C (dose: 200.0 mg/kg/injection, schedule: Q01DX009 (ip), vehicle: saline): 98 % of control
T/C (dose: 400.0 mg/kg/injection, schedule: Q01DX009 (ip), vehicle: saline): 94 % of control

OCCCCc1nccc2c1[nH]c1ccccc12
T/C [7]: 97 % of control
T/C [8]: 95 % of control
T/C [9]: 95 % of control
T/C [1]: 96 % of control

O=C1OC(COCC#Cc2ccccc2)CN1c1ccccc1 (centres undefined)
T/C [8]: 97 % of control
T/C [9]: 93 % of control
T/C (dose: 100.0 mg/kg/injection, schedule: Q04DX003 (ip), vehicle: saline with Tween-80): 102 % of control
T/C [2]: 91 % of control
T/C (dose: 200.0 mg/kg/injection, schedule: Q04DX003 (ip), vehicle: saline with Tween-80): 105 % of control
T/C [3]: 91 % of control
T/C (dose: 400.0 mg/kg/injection, schedule: Q04DX003 (ip), vehicle: saline with Tween-80): 108 % of control

O=C(NC1CCCCC1)Oc1ccccc1-c1ccccc1
T/C [1]: 88 % of control
T/C [3]: 100 % of control

O=NNc1ccccn1
T/C (dose: 3.12 mg/kg/injection, schedule: Q01DX009 (ip), vehicle: saline): 116 % of control
T/C [12]: 119 % of control
T/C [10]: 156 % of control and 165 % of control
